These results are taken from paper PMC6421539, “Discovery of Soft-Drug Topical Tool Modulators of Sphingosine-1-phosphate Receptor 1 (S1PR1)” (ACS Medicinal Chemistry Letters, 2019).

Series [1] in a line: Chemical stability in DMSO solution. It counts as physicochemical. The settings on record: for stability (% decrease in purity): Table 2, stored in DMSO solution for 28 days; for stability (% decrease in purity) / stability (% decrease): n = 1; for isomerization / hydrolysis / chemical instability in DMSO solution (in words): 28 days; for stability (% decrease): Table 3, % loss in purity when stored in DMSO solution for 28 days. The text has this: Although several compounds shown in Table 2 satisfy the rapid clearance requirements of a soft drug and retain primary activity, none were suitable for progression into in vivo studies due to chemical stability liabilities. […] The instability in solution represented a major development hurdle as topical drugs are usually stored in solution or suspensions (cream, ointment, paste, lotion, or gels), rather than in solid form, as is the case for oral drugs. We turned our attention to identifying the impurity and preventing its formation.
Decomposition studies used ^1H NMR to monitor the increase in the acetic acid methyl group peak over 28 days (see Supporting Information). […] However, the chemical stability was poor when heteroatoms were alpha to the carbonyl of the acetate group 10d,e, and these compound degraded on standing within 24 h, preventing full characterization.

Series [2] in a line: CHI logD by reverse-phase HPLC. In kind it is physicochemical. Particulars: compared to 4a.
Series [3] is described as follows: NMR study of isomerisation after incubation in DMSO-d6 for 6 months. In kind it is physicochemical. Particulars: 1H NMR integration. From the text: The NOESY spectrum of the mixture indicated no changes in the arrangement of the imine (no correlation was observed between H^11–H^19 or H^11′–H^19′).
Series [4] is described as follows: Human liver hepatocyte stability, intrinsic clearance. In kind it is in vitro ADME. How it is done: the exponential decay and consequently the rate constant (k) from the ratio of peak area of test compound to internal standard at each timepoint. The rate of intrinsic clearance (CLi) of each test compound was then calculated using the following calculation:
CLi (mL/min/g liver) = k x V x Microsomal protein yield
Where V (mL/mg protein) is the incubation volume/mg protein added and microsomal protein yield is taken as 52.5 mg protein per g liver. Verapamil (0.5 μM) was used as a positive control to confirm acceptable assay performance. Experiments were performed using a single timecourse experiment.
All values reported correspond to n of 1.
Human Liver Hepatocyte (HLH) stability experiments
Cryopreserved vials of human cryopreserved hepatocytes, supplied by Life Technologies, were thawed according to manufacturer’s instructions and cells resuspended in Williams Medium E (WME) containing cell maintenance supplement pack (CM4000, Life Technologies). Hepatocytes were incubated in suspension (0.5 million cells/mL) in 48 well non-collagen coated cell culture plates for 10 minutes at 37 °C, 5% CO 2. […] The response (area ratio of test compound to internal standard) was plotted against time using an exponential decay model and rate of disappearance calculated. […]
The half life (T½) of each test compound was determined using the following equation: […]

Series [5] can be described thus: Topical pharmacokinetic experiment in mice. It counts as in vivo. Particulars: for Mean concentration in blood: female Balb/c mice, topical 10a 1% w/v, n=3, LLoQ = 1 ng/mL, scaled LLoQ 10 ng/mL; for concentration at 2 h / concentration at 8 h: female, Balb/c, mouse, 22.5 µL of 1% w/v 10a; for concentration at 2 h / concentration at 8 h / concentration in blood: mice, topical 22.5 μL of 1% 10a in propylene glycol/ethanol 7/3.

Series [6] is described as follows: Metabolite identification in human hepatocytes. In kind it is in vitro ADME. The settings on record: n = 1. From the text:
(§1) Based on the stability of (Z,Z)-9k in DMSO over 28 days (Table 2), it is likely this hydrolysis is enzymatically driven. We then performed metabolite identification studies using (Z,Z)-9k in human hepatocytes to confirm the routes of clearance of our S1PR1 modulators.

Series [7] can be described thus: Metabolite identification in human skin S9 fraction. It counts as in vitro ADME. The settings on record: incubation with human skin S9 fraction; n = 1.
From the text: as §1

Series [8] is described as follows: Glutathione trapping experiment in human liver microsomes. In kind it is in vitro ADME. The settings on record: 10 µM, 90 minutes. As to the method: Concentration (ng/mL) Scaled concentration (ng/mL) Mean concentration […]
Mouse 1 Mouse 2 Mouse 3 Mouse 1 Mouse 2 Mouse 3
2h-post application < LLoQ < LLoQ < LLoQ < LLoQ < LLoQ < LLoQ < LLoQ […]
Mouse 4 Mouse 5 Mouse 6 Mouse 4 Mouse 5 Mouse 6
8h-post application < LLoQ < LLoQ < LLoQ < LLoQ < LLoQ < LLoQ < LLoQ […]
Scaled LLoQ = dilution factor * LLoQ = 10*1 = 10 ng/mL
Skin concentrations for 10a
Test compound (10 µM) was incubated with 0.5 mg/mL human liver microsomes (Mixed Gender, Life Technologies) in 50 mM potassium phosphate buffer, pH 7.4 in the presence of either NADPH (8mg/mL) alone, glutathione alone or NADPH plus glutathione. Reactions are initiated by addition of 5 µL of 1 mM test compound (final concentration 10 µM, 1% solvent). Immediately, an aliquot (100 µL) of the incubation mixture was removed and mixed with acetonitrile (200 µL) to stop the reaction. A further 100 µL aliquot is removed at 90 minutes. After addition of 100 µL of water, the samples were centrifuged to sediment precipitated protein and the plates then sealed prior to analysis using a Xevo QTof Quadrupole Time-of-Flight Mass Spectrometer (Waters corporation, USA). Detection of metabolites is performed by analysis with MetabolynxXS and by manual data
(1 picture or pasted object on this page, not shown here)
(Liver microsomes are vesicles of endoplasmic reticulum, rich in cytochrome P450 enzymes.)

On the set-up of series [9]: method as in PMID 20089952. Particulars: 0.5 mg/day; cited from earlier work.

“Also recorded” adds a separate entry of the source. Read-outs that look alike come from different tables or passages of the source.

For `CCC/N=C1\S/C(=C\c2ccc(O)c(Cl)c2)C(=O)N1c1ccccc1C` [Compound 4a], the “stability (% decrease in purity)” value in series [1] is 6%.

As for `CCC/N=C1\S/C(=C\c2ccc(O)c(Cl)c2)C(=O)N1C1CCN(C)C(=O)C1` (stereo not drawn) [Compound 4f], in series [2], the “reduction in CHIlogD” value was found to be 3 log units.

Turning to `CCC/N=C1\S/C(=C\c2ccc(O)c(Cl)c2)C(=O)N1c1ccccc1O` [Compound 4h], in series [2], the “reduction in CHIlogD” value amounted to 1.1 log units.

As for `CCC/N=C1\S/C(=C\c2ccc(O)c(Br)c2)C(=O)N1c1ccccc1C` [Compound 9f], in series [1], the “stability (% decrease in purity)” value was found to be 16%.

Consider `CCC/N=C1\S/C(=C\c2ccc(O)c(C(F)(F)F)c2)C(=O)N1c1ccccc1C` [Compound 9g], for which the “stability (% decrease in purity)” value in [1] was 10%.

Regarding `CCC/N=C1\S/C(=C\c2ccc(O)c(C#N)c2)C(=O)N1c1ccccc1C` [Compound 9h], the “impurity (E isomer) share of the mixture” value in series [3] was 32%. The “H Heps Cl (intrinsic clearance in human liver hepatocytes)” value in [4] (0.5 μM test compound, n = 1) was under 0.5 mL/min/g. Moreover, the “stability (% decrease in purity)” value in [1] amounted to 20%.

In the case of `CCC/N=C1\S/C(=C\c2ccc(O)cn2)C(=O)N1c1ccccc1C` [Compound 9i], in [1], the “stability (% decrease in purity)” value stood at 4%.

Take `CCC/N=C1\S/C(=C\c2ccc(O)cc2)C(=O)N1c1ccccc1C` [Compound 9j]: in series [1], the “isomerization / hydrolysis / chemical instability in DMSO solution (in words)” value is “stable over a 28-day period” and the “stability (% decrease in purity)” value turned out to be 0%.

Turning to `CCC/N=C1\S/C(=C\c2ccc(O)c(C)c2)C(=O)N1c1ccccc1C` [Compound 9k], the “Mean concentration in blood” value in series [5] (2h-post application) and in series [5] (8h-post application) was “< LLoQ” each time. Further, the concentration at 2 h in series [5] (skin, 2 h, read-out: concentration in the skin) was 134 µM. Besides, in series [5] (skin, 8 h, read-out: concentration in the skin), the concentration at 8 h stood at 101 µM. The concentration in blood result in series [5] (2 h) and in series [5] (8 h) was “LLoQ” throughout. For the same molecule, in series [4] (corresponds to intrinsic clearance 31 mL/min/g, if good in vitro to in vivo correlation), the “hepatic clearance as % liver blood flow” value is given as 97 % liver blood flow. In addition, the “stability (% decrease in purity)” value in [1] is on record as 3%. Also, the metabolites identified result in [6] was “glucuronide conjugation product, hydroxylation products, and hydroxylation with sulfation metabolites”.

With `CCC/N=C1\S/C(=C\c2ccc(O)c(C(C)C)c2)C(=O)N1c1ccccc1C` [Compound 9l], the “stability (% decrease in purity)” value in series [1] was 3%.

As to `CCC/N=C1\S/C(=C\c2ccc(OC(C)=O)c(C)c2)C(=O)N1c1ccccc1C` [Compound 10a], the “Mean concentration in blood” value in [5] (2h-post application) and in series [5] (8h-post application) was “< LLoQ” each time. For the same molecule, the concentration at 2 h in series [5] (whole blood, 2 h, read-out: concentrations in blood) worked out at 8.8 µM. Also, the concentration at 8 h in series [5] (whole blood, 8 h, read-out: concentrations in blood) was 4.9 µM. The concentration in blood result in series [5] (2 h) and in series [5] (8 h) was “LLoQ” in each case. In addition, in series [7], the metabolites identified result is recorded as “expected phenol (Z,Z)-9k was obtained after hydrolysis of the ester group: no other metabolites were observed”. Further, in [8], the “glutathione adducts or derivatives” value is on record as “no evidence of glutathione adducts or derivatives was observed”. The “isomerization / hydrolysis / chemical instability in DMSO solution (in words)” value in series [1] was “did not isomerize; also recorded: no hydrolysis or isomerization”. In addition, the “stability (% decrease)” value in [1] was determined as 0%.

As for `CCC/N=C1\S/C(=C\c2ccc(OC(C)=O)c(Br)c2)C(=O)N1c1ccccc1C` [Compound 10b], the “stability (% decrease)” value in series [1] is on record as 6.3%.

For `CCC/N=C1\S/C(=C\c2ccc(OC(C)=O)c(C(F)(F)F)c2)C(=O)N1c1ccccc1C` [Compound 10c], the “stability (% decrease)” value in [1] stood at 1.4%.

In the case of `CCC/N=C1\S/C(=C\c2ccc(OC(=O)COC)c(C)c2)C(=O)N1c1ccccc1C` [Compound 10d], the “time within which compound degraded on standing” value in series [1] (heteroatom alpha to the carbonyl of the acetate group) is given as at most 24 h.

`CCC/N=C1\S/C(=C\c2ccc(OC(=O)CCO)c(C)c2)C(=O)N1c1ccccc1C` [Compound 10f]: in series [1], the “isomerization / hydrolysis / chemical instability in DMSO solution (in words)” value is recorded as “did not isomerize; also recorded: instability was not an issue” and the “stability (% decrease)” value amounted to 0%.

Turning to `CCC/N=C1\S/C(=C\c2ccc(OC(=O)CCOC)c(C)c2)C(=O)N1c1ccccc1C` [Compound 10g], in [1], the “isomerization / hydrolysis / chemical instability in DMSO solution (in words)” value is “instability was not an issue”.

For the molecule `CCCCCCCCc1ccc(CCC(N)(CO)CO)cc1` [fingolimod], the “steady state systemic concentration Cmax” value in series [9] was 3.1 ng/mL.

Regarding `CCC/N=C1\S/C(=C\c2ccc(OC[C@H](O)CO)c(Cl)c2)C(=O)N1c1ccccc1C` [ponesimod, reference compound], the “stability (% decrease)” value in [1] came out at 0%.
